Test results reported in patent publication US5747500A, “Antiviral 2, 4-pyrimidinedione derivatives” (priority 1993, dated 1998).
In brackets after ≈: the same amount, converted by molar mass.

Columns and labels:
[1] = tested on: HIV; assay: inhibition of HIV-induced cytopathic effect in MT-4 cells (MTT method); format: cell-based; conditions: for EC50: Human immunodeficiency virus 1, MT4, HIV-infected MT-4 cells, 1000 CCID50, 4 or 5 day incubation at 37° C., MTT method, read-out: ED50: Effective concentration for the inhibition of the proliferation of HIV by 50%; for S.I.: Selectivity index (CD50/ED50): ratio CD50/ED50, MT-4 cells
Method: The anti-HIV assays were based on the inhibition of the virus-induced cytopathic effect in MT-4 cells as described in J. Virol. Methods, 16, 171 (1987). Briefly, MT-4 cells were suspended in culture medium at 2.5×10^5 cells/ml and infected with 1000 CCID50 (50% cell culture infective dose) of HIV. Immediately, after virus infection, 100 μl of the cell suspension was brought into each well of a flat-bottomedmicrotiter tray containing various concentrations of the test compounds. After a 4 or 5 day incubation at 37° C., the number of viable cells was determined by the 3-(4,5-dimethylthiazol-2-yl)-2,5-diphenyltetrazoliumbromide (MTT) method, as disclosed in J. Virol. Methods, 20, 309 (1988).
ED50 : Effective concentration for the inhibition of the
proliferation of HIV by 50%

[2] = cytotoxicity: viability of mock-infected MT-4 host cells (MTT method); format: cell-based; conditions: human, mt-4 cells, read-out: CD50: Cytotoxic concentration that causes death of cells by 50%
Method: The cytotoxicity of the compounds of the present invention was assessed in parallel with their antiviral activity. It was based on the viability of mock-infected host cells as determined by the MTT methods (se J. Virol. Methods, 20, 309 (1988)).
CD50 : Cytotoxic concentration that causes death of cells by 50%

Structure (SMILES) | EC50 [1] | S.I.: Selectivity index (CD50/ED50) [1] | CC50 [2]
CCc1c(Sc2cc(C)cc(C)c2)n(C/C=C/c2ccccc2)c(=O)[nH]c1=O [Example 20] | < 0.009 µg/mL | > 578 | 5.21 µg/mL (≈ 13.3 µM)
CCc1c(Sc2cc(C)cc(C)c2)n(C/C=C/C(=O)OC)c(=O)[nH]c1=O [Example 21] | < 0.32 µg/mL | > 129 | 41.4 µg/mL (≈ 111 µM)
CCc1c(Sc2cc(C)cc(C)c2)n(C/C=C/CCl)c(=O)[nH]c1=O [Example 22] | < 0.36 µg/mL | > 93 | 33.8 µg/mL (≈ 92.6 µM)
CCc1c(Sc2cc(C)cc(C)c2)n(C/C=C\CCl)c(=O)[nH]c1=O [Example 23] | < 0.93 µg/mL | > 41 | 38.2 µg/mL (≈ 105 µM)
C#CCn1c(Sc2cc(C)cc(C)c2)c(CC)c(=O)[nH]c1=O [Example 24, 1-propargyl-5-ethyl-6-(3,5-dimethylphenylthio)-2,4-pyrimidinedione] | < 0.032 µg/mL | > 56 | 1.81 µg/mL (≈ 5.76 µM)
CC#CCn1c(Sc2cc(C)cc(C)c2)c(CC)c(=O)[nH]c1=O [Example 25, 1-(2-butynyl)-5-ethyl-6-(3,5-dimethylphenylthio)-2,4-pyrimidinedione] | < 0.69 µg/mL | > 90 | 62.5 µg/mL (≈ 190 µM)
CCc1c(Sc2cc(C)cc(C)c2)n(CC#Cc2ccccc2)c(=O)[nH]c1=O [Example 26, 1-(3-phenyl-2-propynyl)-5-ethyl-6-(3,5-dimethylphenylthio)-2,4-pyrimidinedione] | < 0.009 µg/mL | > 547 | 4.93 µg/mL (≈ 12.6 µM)
C/C=C/Cn1c(Sc2cc(C)cc(C)c2)c(C(C)C)c(=O)[nH]c1=O [Example 27] | < 0.009 µg/mL | > 740 | 6.66 µg/mL (≈ 19.3 µM)
CC/C=C/Cn1c(Sc2cc(C)cc(C)c2)c(C(C)C)c(=O)[nH]c1=O [Example 28] | < 0.009 µg/mL | > 643 | 5.79 µg/mL (≈ 16.2 µM)
Cc1cc(C)cc(Sc2c(C(C)C)c(=O)[nH]c(=O)n2C/C=C/c2ccccc2)c1 [Example 29] | < 0.023 µg/mL | > 1,615 | 37.1 µg/mL (≈ 91.4 µM)
COC(=O)/C=C/Cn1c(Sc2cc(C)cc(C)c2)c(C(C)C)c(=O)[nH]c1=O [Example 30] | < 0.009 µg/mL | > 1,966 | 17.7 µg/mL (≈ 45.6 µM)
CC#CCn1c(Sc2cc(C)cc(C)c2)c(C(C)C)c(=O)[nH]c1=O [Example 31, 1-(2-butynyl)-5-isopropyl-6-(3,5-dimethylphenylthio)-2,4-pyrimidinedione] | < 0.32 µg/mL | > 52 | 16.9 µg/mL (≈ 49.5 µM)
C/C=C/Cn1c(Cc2ccccc2)c(CC)c(=O)[nH]c1=O [Example 32] | < 0.32 µg/mL | > 101 | 32.4 µg/mL (≈ 114 µM)
CCc1c(Cc2ccccc2)n(C/C=C/c2ccccc2)c(=O)[nH]c1=O [Example 33] | < 0.032 µg/mL | > 268 | 8.58 µg/mL (≈ 24.8 µM)
C=CCn1c(Cc2cc(C)cc(C)c2)c(CC)c(=O)[nH]c1=O [Example 34, 1-allyl-5-ethyl-6-(3,5-dimethylbenzyl)-2,4-pyrimidinedione] | < 0.32 µg/mL | > 38 | 12.3 µg/mL (≈ 41.3 µM)
CCc1c(Cc2cc(C)cc(C)c2)n(C/C=C/c2ccccc2)c(=O)[nH]c1=O [Example 35] | < 0.009 µg/mL | 642 | 5.78 µg/mL (≈ 15.4 µM)
CCc1c(Cc2cc(C)cc(C)c2)n(CC=C(C)C)c(=O)[nH]c1=O [Example 36, 1-(3-methyl-2-butenyl)-5-ethyl-6-(3,5-dimethylbenzyl)-2,4-pyrimidinedione] | < 0.33 µg/mL | 66 | 22.1 µg/mL (≈ 67.6 µM)
CCc1c(Cc2cc(C)cc(C)c2)n(C/C=C/C(=O)OC)c(=O)[nH]c1=O [Example 37] | 1.64 µg/mL (≈ 4.6 µM) | 7.6 | 12.5 µg/mL (≈ 35 µM)
C#CCn1c(Cc2cc(C)cc(C)c2)c(CC)c(=O)[nH]c1=O [Example 38, 1-propargyl-5-ethyl-6-(3,5-dimethylbenzyl)-2,4-pyrimidinedione] | < 0.32 µg/mL | > 75 | 24.1 µg/mL (≈ 81.5 µM)
CC#CCn1c(Cc2cc(C)cc(C)c2)c(CC)c(=O)[nH]c1=O [Example 39, 1-(2-butynyl)-5-ethyl-6-(3,5-dimethylbenzyl)-2,4-pyrimidinedione] | < 0.049 µg/mL | > 176 | 8.65 µg/mL (≈ 27.9 µM)
